Source: patent US20060100168A1, “Method of treating cancer using adenosine and its analogs” (The Trustee of Boston University, priority 2002, published 2006)
“And” between values parts separate entries of the source, which are not always exact repeats. Equal values may be shown once. “Also recorded” adds a separate entry of the source.

Tests used:
[1] = system: cyclin A, cyclin B1, cyclin E, p27; experiment: Western blot of cyclins and Cdk inhibitor in MCF-7 cells; format: cell-based, human; details: 100 μM
Description: (§1) Western Blot Analysis: Cells were washed three times in cold 1×PBS, and collected by scraping on ice. Western blot analysis was performed as we described before with the chemiluminescence method (41). Antibodies used in this study were: ERα (NeoMarkers, Ab-15), Cyclin A (Santa Cruz Biotech, H-432), Cyclin B1 (Santa Cruz Biotech, H-433), Cyclin E (Upstate Biotech, HE-12), p27 (Santa Cruz Biotech, F-8). ERα antibody was used at 1:100 dilutions. Cyclin A, cyclin B1 and p27 antibodies were used at 1:500 dilutions. Cyclin E antibody was used at 1:1000 dilutions.

[2] = in vivo application; Fishman et al. 2002; cited from earlier work
Hs578T cells [3] = experiment: Apoptosis by propidium iodide staining and flow cytometry; format: cell-based, human; details: 100 μM, two days
Description: (§2) Flow Cytometry and Apoptosis Analysis: Cells were detached from tissue culture plates by trypsin treatment. Cells were collected by centrifugation at 1200 g for 5 minutes and washed once with PBS. Staining of cells with propidium iodide and analysis on a flow cytometer (FACScan, Becton Dickinson, Research Triangle Park, N.C.) was performed as described before (42). Data were analyzed with CellQuest software (Becton Dickinson, Research Triangle Park, N.C.). The percentage of cells appearing with a ploidy level smaller than a diploid content was calculated as an estimate of cells undergoing apoptosis.

[4] = system: estrogen receptor β (ERβ) mRNA; experiment: Semi-quantitative RT-PCR of ERβ mRNA in MCF-7 cells; format: cell-based, human; details: 100 μM
Description: (§3) Total RNA preparation and Reverse Transcription Polymerase Chain Reaction (RT-PCR): Total RNA from MCF-7 cells was prepared with Trizol (Invitrogen, Carlsbad, Calif.) as described before (41). For reverse transcription, 2 μg of RNA were used in a […] with random primers and M-MLV reverse transcriptase (Invitrogen, Carlsbad, Calif.), following the manufacturer's protocol. To control for possible contamination from genomic DNA in subsequent PCR reactions, control reverse transcription reactions were carried out under identical conditions, only without reverse transcriptase. After reverse transcription, 5% of the product was used in each PCR reaction. For the experiments analyzing A3 adenosine receptor (A3AR) expression, 27 cycles were used in the PCR reactions. Specific primers were designed for human A3AR, which match to two separate exons, according to genomic sequences (from GenBank). Sequences for the sense and antisense A3AR primers are: 5′tccatcatgtccttgctg3′ (SEQ ID NO: 1) and 5′gcacatgacaaccaggg3′ (SEQ ID NO.: 2). In the experiments analyzing estrogen receptor a (ERα) mRNA, semi-quantitative PCR reactions were carried out with 23 cycles for ERα primers and 19 cycles for GAPDH primers (used as a control). The cycle numbers were tested in previous experiments not to produce saturation effects. […]

[5] = system: MCF-7 cells overexpressing ERα; experiment: Growth of MCF-7 cells transiently transfected with pcDNA3-ERα; format: cell-based, human; details: 100 μM; one day; transfection efficiency approximately 40%
Description: Anchorage-dependent growth assay: Cells were plated into 6-well plates and grown overnight before treatments. The seeding concentration of MCF-7 cells was 2×10^5/well, which was determined during preliminary experiments as not allowing the cells to reach confluency within 3 days. Cells were treated either with vehicle or ligands, as indicated. Cells were detached by incubation with trypsin (Invitrogen, Carlsbad, Calif.) and counted with a hemacytometer before or after treatment. Transfections and Reporter Gene Assay: Transient transfection was performed using FuGene6 (Roche, Indianapolis, Ind.) transfection reagent according to manufacturer's protocol. Circular reporter plasmid pERE-Tk-Luc at 10 μg and 10 μg of pCMV-β-Gal (as a measure of efficiency of trasnfection) were transfected with 50 μl of FuGene6. Cells were split into 6 well plates 12 hours after transfection, and incubated overnight in fresh medium. […] Luciferase and β-galactosidase activities were measured as described before (43, 44).

ZR-75 cells = experiment: Anchorage-dependent growth assay; format: cell-based, human; details: 100 μM, three days
Description: (§4) Anchorage-dependent growth assay: Cells were plated into 6-well plates and grown overnight before treatments. The seeding concentration of MCF-7 cells was 2×10^5/well, which was determined during preliminary experiments as not allowing the cells to reach confluency within 3 days. Cells were treated either with vehicle or ligands, as indicated. Cells were detached by incubation with trypsin (Invitrogen, Carlsbad, Calif.) and counted with a hemacytometer before or after treatment.

Hs578T cells [6] = experiment: Anchorage-dependent growth assay; format: cell-based, human; details: 100 μM, three days
Description: as §4

MCF-7 cells = experiment: Cell cycle analysis by flow cytometry; format: cell-based, human
Description: as §2

[7] = system: estrogen receptor α (ERα) mRNA; experiment: Semi-quantitative RT-PCR of ERα mRNA in MCF-7 cells; format: cell-based, human; details: 100 μM
Description: as §3

[8] = system: ERE promoter activity (transcriptional activity of endogenous ERα); experiment: Reporter gene assay pERE-Tk-Luc in MCF-7 cells; format: cell-based, human; details: MCF-7 transfected with pERE-Tk-Luc; 12 hours
Description: Transfections and Reporter Gene Assay: Transient transfection was performed using FuGene6 (Roche, Indianapolis, Ind.) transfection reagent according to manufacturer's protocol. Circular reporter plasmid pERE-Tk-Luc at 10 μg and 10 μg of pCMV-β-Gal (as a measure of efficiency of trasnfection) were transfected with 50 μl of FuGene6. Cells were split into 6 well plates 12 hours after transfection, and incubated overnight in fresh medium. […] Luciferase and β-galactosidase activities were measured as described before (43, 44).

[9] = system: estrogen receptor α (ERα); experiment: ERα protein level by Western blot in MCF-7 cells; format: cell-based, human
Description: Western Blot Analysis: Cells were washed three times in cold 1×PBS, and collected by scraping on ice. Western blot analysis was performed as we described before with the chemiluminescence method (41). […] Cyclin A, cyclin B1 and p27 antibodies were used at 1:500 dilutions. Cyclin E antibody was used at 1:1000 dilutions.

[10] = system: ERα protein in ZR-75 cells; experiment: ERα protein level in ZR-75 cells; format: cell-based, human; details: not shown
Description: as §1

SMILES: CNC(=O)[C@H]1O[C@@H](n2cnc3c(NCc4cccc(I)c4)ncnc32)[C@H](O)[C@@H]1O [IB-MECA, N^6-(3-iodobenzyl)adenosine-5′-N-methyluronamide]
- Cyclin A and B1 levels [1]: downregulated
- Cyclin E levels [1]: elevated
- cdk inhibitor p27 level [1]: sharp increase
- Effect on blood cell counts [2]: no inhibitory effect
- Apoptosis, in words (Hs578T cells [3]): substantial apoptosis
- Estrogen receptor β message level [4]: not significantly reduced
- Effect on growth of ERα-overexpressing cells [5]: moderate effect on growth
- Cell counts after treatment compared to day 0, in words (ZR-75 cells): decreased only mildly
- Cell counts after treatment compared to day 0, in words (Hs578T cells [6]): affected more severely
- Percentage of cells in G2/M (tetraploid DNA content) (MCF-7 cells; 100 μM for 2 days, vehicle 24.6%): 23.4% and 23%
- Percentage of cells in S phase (MCF-7 cells; 100 μM for 2 days, vehicle 25.2%): 12.3% and 12%
- Percentage of cells in G1 phase (diploid DNA content) (MCF-7 cells; 100 μM for 2 days, vehicle 50.2%): 64.2% and 64%
- Percentage change of diploid (G0 or G1 phase) population compared to vehicle-treated cells (MCF-7 cells; 100 μM, except adenosine (500 μM) and inosine (1 mM), first number in parentheses): 28%
- Percentage change of S phase population compared to vehicle-treated cells (MCF-7 cells; 100 μM, except adenosine (500 μM) and inosine (1 mM), second number in parentheses): −51%
- Percentage change of tetraploid (G2 or M phase) population compared to vehicle-treated cells (MCF-7 cells; 100 μM, except adenosine (500 μM) and inosine (1 mM), third number in parentheses): −5%
- Time of first sign of decrease of ERα mRNA [7]: 4 h
- ERα mRNA level, in words ([7]; 4 to 24 hours, compared to GAPDH): strongly downregulated; also recorded: dramatic decrease
- Drop of ERE promoter activity [8]: more than 5 fold
- ERα Level ([9]; 12 hours, 100 μM, except adenosine (500 μM), Western blot quantitated, vehicle control set to 1, average of two experiments): 0.23
- ERα protein level, in words ([9]; Western blot): decreased
- ERα protein degradation ([9]; protein synthesis inhibited by cycloheximide 50 μg/ml, 100 μM): did not notice any significant change in ERα protein degradation
- ERα protein levels, in words [10]: Reduction of ERα protein levels
